Reference: patent US20160039825A1 (BIOGEN MA INC., priority 2013, published 2016)

Target: T1, Human ATX protein (Homo sapiens, UniProt Q13822)
T1 construct: made in house
Experiment: Autotaxin (ATX) assay, FRET with FS-3 substrate
Format: biochemical
Details: upper bound bins (no greater than 100, 250 or 500 nM); FS-3 2 μM, ATX 1.0 μg/mL
Method in brief: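 Hydrolysis of the FRET substrate FS-3 (2 μM final) unquenches fluorescein, read at excitation 485 nm and emission 538 nm after 2 h at room temperature, protected from light. Purified human ATX (1.0 μg/mL) and compound were first incubated for 30 min in pH 7.4 Tris/salt buffer containing 1 mg/mL fatty acid-free BSA.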

Row | SMILES | IC50 [nM]
1 | O=C(O)C1CC2CCCC(C1)N2C(=O)c1cc2n(c1)CCCN(C(=O)OCc1cc(Cl)cc(Cl)c1)C2 (stereo not shown) [Example 103] | ≤ 100
2 | CCOC(=O)c1cc2n(n1)CCCN(C(=O)OCc1cc(C)cc(C(F)(F)F)c1)C2 [Example 105, 2-Ethyl 5-(3-methyl-5-(trifluoromethyl)benzyl) 7,8-dihydro-4H-pyrazolo[1,5-a][1,4]diazepine-2,5(6H)-dicarboxylate] | ≤ 100
3 | CCOC(=O)c1cc2n(c1)CCCN(C(=O)OCc1cc(C(F)(F)F)cc(C(F)(F)F)c1)C2 [Example 106, 2-(3,5-Bis(trifluoromethyl)benzyl) 8-ethyl 4,5-dihydro-1H-pyrrolo[1,2-a][1,4]diazepine-2,8(3H)-dicarboxylate] | ≤ 100
4 | CCOC(=O)c1nn2c(c1Cl)CN(C(=O)OCc1cc(C(F)(F)F)cc(C(F)(F)F)c1)CCC2 [Example 108, 5-(3,5-Bis(trifluoromethyl)benzyl) 2-ethyl 3-chloro-7,8-dihydro-4H-pyrazolo[1,5-a][1.4]diazepine-2,5(6H)-dicarboxylate] | ≤ 100
5 | Cc1cc(COC(=O)N2CCCn3nc(C(=O)O)cc3C2)cc(C(F)(F)F)c1 [Example 109, 5-(((3-Methyl-5-(trifluoromethyl)benzyl)oxy)carbonyl)-5,6,7,8-tetrahydro-4H-pyrazolo[1,5-a][1,4]diazepine-2-carboxylic acid] | ≤ 100
6 | O=C(O)c1nn2c(c1Cl)CN(C(=O)OCc1cc(C(F)(F)F)cc(C(F)(F)F)c1)CCC2 [Example 110, 5-(((3,5-Bis(trifluoromethyl)benzyl)oxy)carbonyl)-3-chloro-5,6,7,8-tetrahydro-4H-pyrazolo[1,5-a][1,4]diazepine-2-carboxylic acid] | ≤ 100
7 | CC1CN(C(=O)OCc2cc(C(F)(F)F)cc(C(F)(F)F)c2)Cc2cc(C(=O)O)nn2C1 (stereo not shown) [Example 111, 5-(((3,5-Bis(trifluoromethyl)benzyl)oxy)carbonyl)-7-methyl-5,6,7,8-tetrahydro-4H-pyrazolo[1,5-a][1,4]diazepine-2-carboxylic acid] | ≤ 100
8 | CCOC(=O)c1nn2c(c1Cl)CN(C(=O)OCc1cc(C(F)(F)F)cc(C(F)(F)F)c1)CC2 [Example 112, 5-(3,5-Bis(trifluoromethyl)benzyl) 2-ethyl 3-chloro-6,7-dihydropyrazolo[1,5-a]pyrazine-2,5(4H)-dicarboxylate] | ≤ 250
9 | CCOC(=O)c1nn2c(c1Br)CN(C(=O)OCc1cc(C(F)(F)F)cc(C(F)(F)F)c1)CCC2 [Example 114, 5-(3,5-Bis(trifluoromethyl)benzyl) 2-ethyl 3-bromo-7,8-dihydro-4H-pyrazolo[1,5-a][1,4]diazepine-2,5(6H)-dicarboxylate] | ≤ 100
10 | O=C(O)c1nn2c(c1Br)CN(C(=O)OCc1cc(C(F)(F)F)cc(C(F)(F)F)c1)CCC2 [Example 115, 5-(((3,5-Bis(trifluoromethyl)benzyl)oxy)carbonyl)-3-bromo-5,6,7,8-tetrahydro-4H-pyrazolo[1,5-a][1,4]diazepine-2-carboxylic acid] | ≤ 100
11 | O=C(O)c1cc2n(n1)CCCN(C(=O)CNc1cc(C(F)(F)F)cc(C(F)(F)F)c1)C2 [Example 116, 5-(2-((3,5-Bis(trifluoromethyl)phenyl)amino)acetyl)-5,6,7,8-tetrahydro-4H-pyrazolo[1,5-a][1,4]diazepine-2-carboxylic acid] | ≤ 500
12 | O=C(O)c1cc2n(n1)CCCN(C(=O)COc1cc(C(F)(F)F)cc(C(F)(F)F)c1)C2 [Example 117, 5-(2-(3,5-Bis(trifluoromethyl)phenoxy)acetyl)-5,6,7,8-tetrahydro-4H-pyrazolo[1,5-a][1,4]diazepine-2-carboxylic acid] | ≤ 500
13 | Cc1noc(-c2cc3n(n2)CCCN(C(=O)OCc2cc(C(F)(F)F)cc(C(F)(F)F)c2)C3)n1 [Example 118, 3,5-Bis(trifluoromethyl)benzyl 2-(3-methyl-1,2,4-oxadiazol-5-yl)-7,8-dihydro-4H-pyrazolo[1,5-a][1,4]diazepine-5(6H)-carboxylate] | ≤ 100
14 | Cc1nnc(-c2cc3n(n2)CCCN(C(=O)OCc2cc(C(F)(F)F)cc(C(F)(F)F)c2)C3)o1 [Example 119, 3,5-Bis(trifluoromethyl)benzyl 2-(5-methyl-1,3,4-oxadiazol-2-yl)-7,8-dihydro-4H-pyrazolo[1,5-a][1,4]diazepine-5(6H)-carboxylate] | ≤ 100
15 | N#Cc1cc2n(n1)CCCN(C(=O)OCc1cc(Cl)cc(Cl)c1)C2 [Example 122, 3,5-Dichlorobenzyl 2-cyano-7,8-dihydro-4H-pyrazolo[1,5-a][1,4]diazepine-5(6H)-carboxylate] | ≤ 250
16 | O=C(OCc1cc(Cl)cc(Cl)c1)N1CCCn2nc(-c3nnn[nH]3)cc2C1 [Example 123, 3,5-Dichlorobenzyl 2-(1H-tetrazol-5-yl)-7,8-dihydro-4H-pyrazolo[1,5-a][1,4]diazepine-5(6H)-carboxylate] | ≤ 250
17 | Cc1cc2n(n1)CCCN(C(=O)OCc1cc(Cl)cc(Cl)c1)C2 [Example 130, 3,5-Dichlorobenzyl 2-methyl-7,8-dihydro-4H-pyrazolo[1,5-a][1,4]diazepine-5(6H)-carboxylate] | ≤ 500
18 | O=C(OCc1cc(Cl)cc(Cl)c1)N1CCCn2cncc2C1 [Example 133, 3,5-Dichlorobenzyl 6,7-dihydro-5H-imidazo[1,5-a][1,4]diazepine-8(9H)-carboxylate] | ≤ 100
19 | O=C(OCc1cc(C(F)(F)F)cc(C(F)(F)F)c1)N1CCCn2nc(-c3nnn[nH]3)cc2C1 [Example 136, 3,5-Bis(trifluoromethyl)benzyl 2-(1H-tetrazol-5-yl)-7,8-dihydro-4H-pyrazolo[1,5-a][1,4]diazepine-5(6H)-carboxylate] | ≤ 100
20 | CCOC(=O)c1cc2n(n1)CCCN(C(=O)OCCc1cc(C(F)(F)F)cc(C(F)(F)F)c1)C2 [Example 141, 5-(3,5-Bis(trifluoromethyl)phenethyl) 2-ethyl 7,8-dihydro-4H-pyrazolo[1,5-a][1,4]diazepine-2,5(6H)-dicarboxylate] | ≤ 500
21 | CON(C)C(=O)c1cc2n(n1)CCCN(C(=O)OCc1cc(C(F)(F)F)cc(C(F)(F)F)c1)C2 [Example 144, 3,5-Bis(trifluoromethyl)benzyl 2-(methoxy(methyl)carbamoyl)-7,8-dihydro-4H-pyrazolo[1,5-a][1,4]diazepine-5(6H)-carboxylate] | ≤ 100

Next, values leading:

Row | IC50 [nM] | SMILES
22 | ≤ 250 | O=C(O)c1nn2c(c1Cl)CN(C(=O)OCc1cc(C(F)(F)F)cc(C(F)(F)F)c1)CC2 [Example 113, 5-(((3,5-Bis(trifluoromethyl)benzyl)oxy)carbonyl)-3-chloro-4,5,6,7-tetrahydropyrazolo[1,5-a]pyrazine-2-carboxylic acid]
23 | ≤ 100 | Cc1cc2n(n1)CCCN(C(=O)OCc1cc(C(F)(F)F)cc(C(F)(F)F)c1)C2 [Example 124, 3,5-Bis(trifluoromethyl)benzyl 2-methyl-7,8-dihydro-4H-pyrazolo[1,5-a][1,4]diazepine-5(6H)-carboxylate]
24 | ≤ 100 | N#Cc1cc2n(n1)CCCN(C(=O)OCc1cc(C(F)(F)F)cc(C(F)(F)F)c1)C2 [Example 125, 3,5-Bis(trifluoromethyl)benzyl 2-cyano-7,8-dihydro-4H-pyrazolo[1,5-a][1,4]diazepine-5(6H)-carboxylate]
25 | ≤ 500 | O=C(OCc1cc(F)cc(C(F)(F)F)c1)N1CCn2cc(C(F)(F)F)nc2C1 [Example 126, 3-Fluoro-5-(trifluoromethyl)benzyl 2-(trifluoromethyl)-5,6-dihydroimidazo[1,2-a]pyrazine-7(8H)-carboxylate]
26 | ≤ 100 | O=C(OCc1cc(C(F)(F)F)cc(C(F)(F)F)c1)N1CCn2cc(C(F)(F)F)nc2C1 [Example 127, 3,5-Bis(trifluoromethyl)benzyl 2-(trifluoromethyl)-5,6-dihydroimidazo[1,2-a]pyrazine-7(8H)-carboxylate]
27 | ≤ 250 | Cc1cc2n(n1)CCCN(C(=O)OCc1cc(F)cc(C(F)(F)F)c1)C2 [Example 128, 3-Fluoro-5-(trifluoromethyl)benzyl 2-methyl-7,8-dihydro-4H-pyrazolo[1,5-a][1,4]diazepine-5(6H)-carboxylate]
28 | ≤ 500 | N#Cc1cc2n(n1)CCCN(C(=O)OCc1cc(F)cc(C(F)(F)F)c1)C2 [Example 129]
29 | ≤ 500 | O=C(OCc1cc(Cl)cc(Cl)c1)N1CCn2cc(C(F)(F)F)nc2C1 [Example 131, 3,5-Dichlorobenzyl 2-(trifluoromethyl)-5,6-dihydroimidazo[1,2-a]pyrazine-7(8H)-carboxylate]
30 | ≤ 100 | O=C(OCc1cc(C(F)(F)F)cc(C(F)(F)F)c1)N1CCCn2cncc2C1 [Example 132, 3,5-Bis(trifluoromethyl)benzyl 6,7-dihydro-5H-imidazo[1,5-a][1,4]diazepine-8(9H)-carboxylate]
31 | ≤ 500 | O=C(OCc1cc(C(F)(F)F)cc(C(F)(F)F)c1)N1CCn2c(nnc2C(F)(F)F)C1 [Example 134, 3,5-Bis(trifluoromethyl)benzyl 3-(trifluoromethyl)-5,6-dihydro-[1,2,4]triazolo[4,3-a]pyrazine-7(8H)-carboxylate]
32 | ≤ 500 | O=C(OCc1cc(Cl)cc(C(F)(F)F)c1)N1CCn2c(nnc2C(F)(F)F)C1 [Example 135, 3-Chloro-5-(trifluoromethyl)benzyl 3-(trifluoromethyl)-5,6-dihydro-[1,2,4]triazolo[4,3-a]pyrazine-7(8H)-carboxylate]
33 | ≤ 100 | CC(=O)c1cc2n(n1)CCCN(C(=O)OCc1cc(C(F)(F)F)cc(C(F)(F)F)c1)C2 [Example 145, 3,5-Bis(trifluoromethyl)benzyl 2-acetyl-7,8-dihydro-4H-pyrazolo[1,5-a][1,4]diazepine-5(6H)-carboxylate]
34 | ≤ 100 | CC(O)c1cc2n(n1)CCCN(C(=O)OCc1cc(C(F)(F)F)cc(C(F)(F)F)c1)C2 (stereo not shown) [Example 146, 3,5-Bis(trifluoromethyl)benzyl 2-(1-hydroxyethyl)-7,8-dihydro-4H-pyrazolo[1,5-a][1,4]diazepine-5(6H)-carboxylate]
